Test results reported in patent publication US11780845B2 (Relay Therapeutics, Inc., priority 2019, dated 2023).

Tests used:
[1] = target: FGFR2 (Homo sapiens (Human), UniProt P21802); test: Biochemical FGFR2 Caliper assay
[2] = system: SNU-16; test: Cell SNU-16 assay; assay type: cell-based
[3] = Homo sapiens, SNU-16, SNU-16 cells

Chain of FGFR2 (P21802 22-821): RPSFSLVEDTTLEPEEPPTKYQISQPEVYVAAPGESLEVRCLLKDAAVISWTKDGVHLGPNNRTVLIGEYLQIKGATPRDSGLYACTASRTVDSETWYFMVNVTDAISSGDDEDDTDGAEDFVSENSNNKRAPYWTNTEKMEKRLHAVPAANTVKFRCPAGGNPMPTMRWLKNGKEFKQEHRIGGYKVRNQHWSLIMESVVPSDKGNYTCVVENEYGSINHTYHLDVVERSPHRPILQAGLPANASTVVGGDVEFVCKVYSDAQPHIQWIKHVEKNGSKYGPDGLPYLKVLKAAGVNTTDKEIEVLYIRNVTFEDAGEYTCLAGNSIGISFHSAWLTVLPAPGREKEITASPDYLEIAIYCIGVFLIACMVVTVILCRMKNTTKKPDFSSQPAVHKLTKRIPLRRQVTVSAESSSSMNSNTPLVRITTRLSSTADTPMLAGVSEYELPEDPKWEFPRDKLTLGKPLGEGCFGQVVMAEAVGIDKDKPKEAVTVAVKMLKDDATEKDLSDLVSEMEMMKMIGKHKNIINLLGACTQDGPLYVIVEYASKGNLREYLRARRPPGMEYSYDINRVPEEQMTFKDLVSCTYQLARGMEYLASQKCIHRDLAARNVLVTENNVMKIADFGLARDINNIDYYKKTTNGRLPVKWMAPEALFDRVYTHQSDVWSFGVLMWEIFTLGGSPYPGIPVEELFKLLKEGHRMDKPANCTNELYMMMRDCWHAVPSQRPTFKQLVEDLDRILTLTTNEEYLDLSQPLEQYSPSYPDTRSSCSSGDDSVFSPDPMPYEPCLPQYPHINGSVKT

SMILES | IC50 [1] | IC50 [2, 3] | IC50 ([2]; SNU-16 cells)
Cn1c(-c2ccc(NC(=O)C3CN3)cc2)c(-c2ccc(C(=O)N3CCCC3)cc2)c2c(N)ncnc21 (stereo not drawn) [Example 901] | 1000 to 100000 nM | 1000 to 100000 nM | 
Cc1ccnc(Oc2ccc(-c3c(-c4ccc(NC(=O)C5=CCOC5)cc4)n(C)c4ncnc(N)c34)cc2)n1 [Example 904] | 1000 to 100000 nM | 1000 to 100000 nM | 
C=C(C)C(=O)Nc1ccc(-c2c(-c3ccc4c(c3)OCC4c3cccc(C)n3)c3c(N)ncnc3n2C)cc1 (stereo not drawn) [Example 907] | < 100 nM | ≤ 100 nM | 
C=C(C)C(=O)Nc1ccc(-c2c(-c3ccc(C(=O)NCC(C)C)c(OC)c3)c3c(N)ncnc3n2C)cc1 [Example 910] | 1000 to 100000 nM | 1000 to 100000 nM | 
Cc1ccnc(Oc2ccc(-c3c(-c4ccc(-c5cnc(C#N)o5)cc4)n(C)c4ncnc(N)c34)cc2)n1 [Example 915] | 1000 to 100000 nM | 250 to 1000 nM | 
C=CC(=O)N1CCc2ccc(-c3c(-c4ccc(Oc5nccc(C)n5)cc4)c4c(N)ncnc4n3C)cc2C1 [Example 916] | 1000 to 100000 nM | 100 to 250 nM | 
C=CC(=O)NCc1ccc(-c2c(-c3ccc(Oc4nccc(C)n4)cc3)c3c(N)ncnc3n2C)cc1 [Example 921] | 1000 to 100000 nM | 250 to 1000 nM | 
CC1=CCN(c2ccc(-c3c(-c4ccc(Oc5nccc(C)n5)cc4)c4c(N)ncnc4n3C)cc2)C1=O [Example 924] | 1000 to 100000 nM |  | 1000 to 100000 nM
C=CC(=O)NC(C)(C)c1ccc(-c2c(-c3ccc(Oc4nccc(C)n4)cc3)c3c(N)ncnc3n2C)cc1 [Example 943] | 250 to 1000 nM | 250 to 1000 nM | 
C=Cc1ncc(-c2ccc(-c3c(-c4ccc(Oc5nccc(C)n5)cc4)c4c(N)ncnc4n3C)cc2)o1 [Example 947] | < 100 nM | ≤ 100 nM | 
Cc1ccnc(Oc2ccc(-c3c(-c4ccc(NCC5CO5)cc4)n(C)c4ncnc(N)c34)cc2)n1 (stereo not drawn) [Example 948] | 1000 to 100000 nM | 1000 to 100000 nM | 
Cc1ccnc(Oc2ccc(-c3c(-c4ccc(NC(=O)C5=COCC5)cc4)n(C)c4ncnc(N)c34)cc2)n1 [Example 952] | < 100 nM | ≤ 100 nM | 
Cc1ccnc(Oc2ccc(-c3c(-c4ccc(-c5cnc(C#N)s5)cc4)n(C)c4ncnc(N)c34)cc2)n1 [Example 959] | 250 to 1000 nM | ≤ 100 nM | 
C=C(C)C(=O)Nc1ccc(-c2c(-c3ccc(C(=O)N[C@H]4C[C@@H](F)C4)c(OC)c3)c3c(N)ncnc3n2C)cc1 [Example 964] | < 100 nM | ≤ 100 nM | 
C=C(C)C(=O)Nc1ccc(-c2c(-c3ccc(C(=O)N[C@H]4C[C@H](F)C4)c(OC)c3)c3c(N)ncnc3n2C)cc1 [Example 965] | < 100 nM | ≤ 100 nM | 
C=C(C)C(=O)Nc1ccc(-c2c(-c3ccc(C(=O)N[C@H]4C[C@H](F)C4)c(COC)c3)c3c(N)ncnc3n2C)cc1 [Example 966] | < 100 nM | ≤ 100 nM | 
C=C(C)C(=O)Nc1ccc(-c2c(-c3ccc(C(=O)N[C@H]4C[C@@H](F)C4)c(COC)c3)c3c(N)ncnc3n2C)cc1 [Example 967] | 1000 to 100000 nM | 1000 to 100000 nM | 
C#Cc1ncc(-c2c(-c3ccc(C(=O)N4CCCC4)cc3)c3c(N)ncnc3n2C)cn1 [Example 968] | 250 to 1000 nM | 250 to 1000 nM | 
C=C(C)C(=O)Nc1ccc(-c2c(-c3ccc(C(=O)N[C@H]4C[C@H](F)C4)c(OC(F)F)c3)c3c(N)ncnc3n2C)cc1 [Example 970] | 1000 to 100000 nM | 1000 to 100000 nM | 
C=C(C)C(=O)Nc1ccc(-c2c(-c3ccc(C(=O)N[C@H]4C[C@@H](F)C4)c(OC(F)F)c3)c3c(N)ncnc3n2C)cc1 [Example 971] | 250 to 1000 nM | 250 to 1000 nM | 
C=C(C)C(=O)Nc1ccc(-c2c(-c3ccc(C(=O)N[C@H]4C[C@@H](F)C4)c(OC4CC4)c3)c3c(N)ncnc3n2C)cc1 [Example 976] | 1000 to 100000 nM | 1000 to 100000 nM | 
C=C(C)C(=O)Nc1ccc(-c2c(-c3ccc(C(=O)N[C@H]4C[C@H](F)C4)c(OC4CC4)c3)c3c(N)ncnc3n2C)cc1 [Example 978] | 250 to 1000 nM | 250 to 1000 nM | 
CC(=O)C(=O)Nc1ccc(-c2c(-c3ccc(C(=O)N4CCc5ccccc54)cc3)c3c(N)ncnc3n2C)cc1 [Example 980] | < 100 nM | ≤ 100 nM | 
C=Cc1ncc(-c2ccc(-c3c(-c4ccc(Oc5nccc(C)n5)cc4)c4c(N)ncnc4n3C)cc2)s1 [Example 984] | < 100 nM | ≤ 100 nM | 
C=CC(=O)N1CC=C(c2ccc(-c3c(-c4ccc(Oc5cccc(C)n5)cc4)c4c(N)ncnc4n3C)cc2)C1 [Example 989] | 1000 to 100000 nM | 250 to 1000 nM | 
C=CC(=O)Nc1ccc(-c2c(-c3ccc(C(=O)NCC(C)C)cc3)c3c(N)ncnc3n2C)cc1 [Example 990] | < 100 nM | ≤ 100 nM | 
C#Cc1ncc(-c2c(-c3ccc(Oc4nccc(C)n4)cc3)c3c(N)ncnc3n2C)cn1 [Example 1000] | 1000 to 100000 nM |  | 250 to 1000 nM
C=CC(=O)N1CCN(c2cccc(-c3c(-c4ccc(Oc5cccc(C)n5)cc4)c4c(N)ncnc4n3C)c2)CC1 [Example 1004] | < 100 nM | ≤ 100 nM | 
C=CC(=O)NCc1cccc(-c2c(-c3ccc(Oc4cccc(C)n4)cc3)c3c(N)ncnc3n2C)c1 [Example 1005] | 250 to 1000 nM | 100 to 250 nM | 
C#CCCCCn1c(-c2ccc(NC(=O)C(=C)C)cc2)c(-c2ccc(Oc3nccc(C)n3)c(F)c2)c2c(N)ncnc21 [Example 1007] | < 100 nM | ≤ 100 nM | 

The remaining lines, values ahead:

IC50 [1] | IC50 [2, 3] | IC50 ([2]; SNU-16 cells) | SMILES
< 100 nM | ≤ 100 nM |  | C=C(C)C(=O)Nc1ccc(-c2c(-n3ccc(C(=O)N4CCCC4)cc3=O)c3c(N)ncnc3n2C)cc1 [Example 898]
1000 to 100000 nM | 1000 to 100000 nM |  | COC(=O)Nc1ccc(-c2c(-c3ccc(C(=O)N4CCCC4)cc3)c3c(N)ncnc3n2C)cc1 [Example 902]
1000 to 100000 nM | 1000 to 100000 nM |  | C=C(C)C(=O)N1CC(c2c(-c3ccc(C(=O)N4CCCC4)cc3)c3c(N)ncnc3n2C)=C[C@@H]1C [Example 903]
< 100 nM | ≤ 100 nM |  | C=C(C)C(=O)Nc1ccc(-c2c(-c3ccc(C(=O)NC4CCC4)c(OC)c3)c3c(N)ncnc3n2C)cc1 [Example 911]
< 100 nM | ≤ 100 nM |  | C=C(C)C(=O)Nc1ccc(-c2c(-c3ccc(C(=O)NC4CC(F)(F)C4)c(OC)c3)c3c(N)ncnc3n2C)cc1 [Example 912]
250 to 1000 nM | 250 to 1000 nM |  | C=C(C)C(=O)Nc1ccc(-c2c(C3=CCN(C(=O)C4CCCC4)CC3)c3c(N)ncnc3n2C)cc1 [Example 922]
1000 to 100000 nM | 250 to 1000 nM |  | C=C(C)C(=O)Nc1ccc(-c2c(C3=CCN(C(=O)N4CCCC4)CC3)c3c(N)ncnc3n2C)cc1 [Example 923]
1000 to 100000 nM | 1000 to 100000 nM |  | C=C(C)C(=O)Nc1ccc(-c2c(C3=CC[C@@H](C(=O)N4CCCC4)C[C@@H]3C)c3c(N)ncnc3n2C)cc1 [Example 937]
250 to 1000 nM | 1000 to 100000 nM |  | C=C(C)C(=O)Nc1ccc(-c2c(-c3ccc(C(=O)NCC4(F)CCC4)c(OC)c3)c3c(N)ncnc3n2C)cc1 [Example 946]
< 100 nM | ≤ 100 nM |  | C=C(C)C(=O)Nc1ccc(-c2c(-c3ccc(C(=O)NC4(COC)CCC4)c(OC)c3)c3c(N)ncnc3n2C)cc1 [Example 956]
< 100 nM | ≤ 100 nM |  | C=C(C)C(=O)Nc1ccc(-c2c(C3=CCC(C(=O)N4CCCC4)CC3(F)F)c3c(N)ncnc3n2C)cc1 (stereo not drawn) [Example 969]
< 100 nM | ≤ 100 nM |  | C=C(C)C(=O)Nc1ccc(-c2c(-c3ccc(C(=O)NCC4CCC4)c(OC)n3)c3c(N)ncnc3n2C)cc1 [Example 983]
< 100 nM | ≤ 100 nM |  | C=C(C)C(=O)Nc1ccc(-c2c(C3=CC[C@H](C(=O)N4CCC[C@@H]4C)CC3)c3c(N)ncnc3n2C)cc1 [Example 991]
1000 to 100000 nM | 100 to 250 nM |  | C=C(C)C(=O)Nc1ccc(-c2c(C3=CC[C@@H](C(=O)N4CCCC[C@H]4C)CC3)c3c(N)ncnc3n2C)cc1 [Example 992]
< 100 nM | ≤ 100 nM |  | C=C(C)C(=O)Nc1ccc(-c2c(C3=CC[C@@H](S(=O)(=O)N4CCCC4)CC3)c3c(N)ncnc3n2C)cc1 [Example 993]
1000 to 100000 nM | 100 to 250 nM |  | C=C(C)C(=O)Nc1ccc(-c2c(C3=CC[C@H](C(=O)N4CCCC[C@H]4C)CC3)c3c(N)ncnc3n2C)cc1 [Example 994]
1000 to 100000 nM | 250 to 1000 nM |  | C=C(C)C(=O)Nc1ccc(-c2c(C3=CC[C@H](S(=O)(=O)N4CCCC4)CC3)c3c(N)ncnc3n2C)cc1 [Example 995]
250 to 1000 nM | 100 to 250 nM |  | C=C(C)C(=O)Nc1ccc(-c2c(C3=CC[C@@H](C(=O)N4CC5CC4C5)CC3)c3c(N)ncnc3n2C)cc1 [Example 996]
1000 to 100000 nM | 250 to 1000 nM |  | C=C(C)C(=O)Nc1ccc(-c2c(C3=CC[C@H](C(=O)N4CC5CC4C5)CC3)c3c(N)ncnc3n2C)cc1 [Example 997]
< 100 nM | ≤ 100 nM |  | C=C(C)C(=O)Nc1ccc(-c2c(C3=CC[C@@H](C(=O)N4CCCC45CCC5)CC3)c3c(N)ncnc3n2C)cc1 [Example 998]
< 100 nM | ≤ 100 nM |  | C=C(C)C(=O)Nc1ccc(-c2c(C3=CC[C@H](C(=O)N4CCCC45CCC5)CC3)c3c(N)ncnc3n2C)cc1 [Example 999]
< 100 nM | ≤ 100 nM |  | C=C(C)C(=O)Nc1ccc(-c2c(C3=CC[C@H](C(=O)N4CCCC4)CC3)c3c(N)ncnc3n2C)c(F)c1 [Example 1001]
< 100 nM | ≤ 100 nM |  | C=C(C)C(=O)Nc1ccc(-c2c(C3=CC[C@@H](C(=O)N4CCCC4)CC3)c3c(N)ncnc3n2C)c(F)c1 [Example 1002]
250 to 1000 nM | 100 to 250 nM |  | C=C(C)C(=O)Nc1ccc(-c2c(C3=CC[C@@H](C(=O)N4CCC[C@@H]4C)CC3)c3c(N)ncnc3n2C)cc1 [Example 1003]
250 to 1000 nM | 250 to 1000 nM |  | C=C(C)C(=O)Nc1ccc(-c2c(C3=CC[C@H](C(=O)N4CCC[C@H]4C)CC3)c3c(N)ncnc3n2C)cc1 [Example 1006]
100 to 250 nM | 100 to 250 nM |  | C=C(C)C(=O)Nc1ccc(-c2c(C3=CC[C@@H](C(=O)N4CCC[C@H]4C)CC3)c3c(N)ncnc3n2C)cc1 [Example 1008]
1000 to 100000 nM |  | 250 to 1000 nM | C=C(C)C(=O)Nc1ccc(-c2c(C3=CC[C@@](C)(C(=O)N4CCCC4)CC3)c3c(N)ncnc3n2C)cc1 [Example 1009]
